Data reported in PubChem BioAssay (NCI).
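Cultured in 96-well plates, cells were exposed to test compound for 48 hours across five concentrations. GI50 = concentration required for 50% inhibition of growth. TGI is the concentration that stops growth completely.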

What was measured:
Assay in all cases: NCI tumour cell line growth inhibition, 48 h; in the data active = GI50 below about 0.43 µM; inactive = the rest
SF-539 CNS = test system: SF-539 CNS
COLO 205 colon = test system: COLO 205 colon
MDA-MB-435 = test system: MDA-MB-435
PC-3 prostate = test system: PC-3 prostate
MOLT-4 leukemia = test system: MOLT-4 leukemia
CCRF-CEM leukemia = test system: CCRF-CEM leukemia
MDA-MB-231 breast = test system: MDA-MB-231 breast
NCI/ADR-RES ovarian = test system: NCI/ADR-RES ovarian
OVCAR-8 ovarian = test system: OVCAR-8 ovarian
MCF7 breast = test system: MCF7 breast
RXF 393 renal = test system: RXF 393 renal
LOX IMVI melanoma = test system: LOX IMVI melanoma
OVCAR-3 ovarian = test system: OVCAR-3 ovarian
TK-10 renal = test system: TK-10 renal
HT29 colon = test system: HT29 colon
UACC-257 melanoma = test system: UACC-257 melanoma
SF-268 CNS = test system: SF-268 CNS
NCI-H460 lung = test system: NCI-H460 lung
RPMI-8226 leukemia = test system: RPMI-8226 leukemia
CAKI-1 renal = test system: CAKI-1 renal
UACC-62 melanoma = test system: UACC-62 melanoma
U251 CNS = test system: U251 CNS
SF-295 CNS = test system: SF-295 CNS
NCI-H226 lung = test system: NCI-H226 lung
HL-60(TB) leukemia = test system: HL-60(TB) leukemia
OVCAR-5 ovarian = test system: OVCAR-5 ovarian
MALME-3M melanoma = test system: MALME-3M melanoma
SK-OV-3 ovarian = test system: SK-OV-3 ovarian
SN12C renal = test system: SN12C renal
K-562 leukemia = test system: K-562 leukemia
786-0 renal = test system: 786-0 renal
SK-MEL-28 melanoma = test system: SK-MEL-28 melanoma
A549 NSCLC = test system: A549 NSCLC
SNB-75 CNS = test system: SNB-75 CNS
SR leukemia = test system: SR leukemia
HS 578T breast = test system: HS 578T breast
BT-549 breast = test system: BT-549 breast
SNB-19 CNS = test system: SNB-19 CNS
A498 renal = test system: A498 renal
KM12 colon = test system: KM12 colon
HOP-92 NSCLC = test system: HOP-92 NSCLC
IGROV1 ovarian = test system: IGROV1 ovarian
UO-31 renal = test system: UO-31 renal
NCI-H23 lung = test system: NCI-H23 lung
SK-MEL-5 melanoma = test system: SK-MEL-5 melanoma
HCC-2998 colon = test system: HCC-2998 colon
SK-MEL-2 melanoma = test system: SK-MEL-2 melanoma
SW-620 colon = test system: SW-620 colon
T-47D breast = test system: T-47D breast
HOP-62 NSCLC = test system: HOP-62 NSCLC
OVCAR-4 ovarian = test system: OVCAR-4 ovarian
HCT-15 colon = test system: HCT-15 colon
DU-145 prostate = test system: DU-145 prostate
ACHN renal = test system: ACHN renal
NCI-H522 lung = test system: NCI-H522 lung
HCT-116 colon = test system: HCT-116 colon
M14 melanoma = test system: M14 melanoma

Cn1cc(C2=C(Sc3ccccc3)C(=O)NC2=O)c2ccccc21
> 20.2 µM: TGI (MALME-3M melanoma)
> 17.3 µM: TGI (ACHN renal)
> 17.6 µM: TGI (RXF 393 renal)
> 20.7 µM: TGI (BT-549 breast)
> 21.8 µM: TGI (SK-MEL-2 melanoma)
> 17.2 µM: TGI (T-47D breast)
> 16.5 µM: TGI (SW-620 colon)
> 21.2 µM: TGI (UACC-257 melanoma)
> 16.9 µM: TGI (HCT-116 colon)
> 25 µM: TGI (SF-539 CNS) | TGI (COLO 205 colon) | TGI (MDA-MB-435) | TGI (PC-3 prostate) | TGI (MOLT-4 leukemia) | TGI (CCRF-CEM leukemia) | TGI (MDA-MB-231 breast) | TGI (NCI/ADR-RES ovarian) | TGI (OVCAR-8 ovarian) | TGI (HT29 colon) | TGI (SF-268 CNS) | TGI (NCI-H460 lung) | TGI (RPMI-8226 leukemia) | TGI (CAKI-1 renal) | TGI (UACC-62 melanoma) | TGI (U251 CNS) | TGI (SF-295 CNS) | TGI (NCI-H226 lung) | TGI (OVCAR-5 ovarian) | TGI (SK-OV-3 ovarian) | TGI (SN12C renal) | TGI (K-562 leukemia) | TGI (786-0 renal) | TGI (A549 NSCLC) | TGI (SNB-75 CNS) | TGI (SR leukemia) | TGI (HS 578T breast) | TGI (SNB-19 CNS) | TGI (A498 renal) | TGI (KM12 colon) | TGI (HOP-92 NSCLC) | TGI (IGROV1 ovarian) | TGI (NCI-H23 lung) | TGI (SK-MEL-5 melanoma) | TGI (HOP-62 NSCLC) | TGI (OVCAR-4 ovarian) | TGI (DU-145 prostate) | TGI (M14 melanoma)
> 20.4 µM: TGI (TK-10 renal)
8.44 µM: TGI (NCI-H522 lung)
inactive: GI50 (SF-539 CNS) > 25 µM | GI50 (COLO 205 colon) > 16.2 µM | GI50 (MDA-MB-435) 10 µM | GI50 (PC-3 prostate) > 25 µM | GI50 (MOLT-4 leukemia) 7.9 µM | GI50 (CCRF-CEM leukemia) 7.7 µM | GI50 (MDA-MB-231 breast) 12.1 µM | GI50 (NCI/ADR-RES ovarian) > 25 µM | GI50 (OVCAR-8 ovarian) > 14.2 µM | GI50 (MCF7 breast) 7.83 µM | GI50 (RXF 393 renal) 7.2 µM | GI50 (LOX IMVI melanoma) 4.7 µM | GI50 (OVCAR-3 ovarian) 9.57 µM | GI50 (TK-10 renal) > 13.6 µM | GI50 (HT29 colon) > 18.7 µM | GI50 (UACC-257 melanoma) > 12 µM | GI50 (SF-268 CNS) > 15.2 µM | GI50 (NCI-H460 lung) > 25 µM | GI50 (RPMI-8226 leukemia) 9.19 µM | GI50 (CAKI-1 renal) > 18.1 µM | GI50 (UACC-62 melanoma) > 13.7 µM | GI50 (U251 CNS) > 25 µM | GI50 (SF-295 CNS) > 25 µM | GI50 (NCI-H226 lung) > 25 µM | GI50 (HL-60(TB) leukemia) 8.4 µM | GI50 (OVCAR-5 ovarian) > 25 µM | GI50 (MALME-3M melanoma) > 13.2 µM | GI50 (SK-OV-3 ovarian) > 25 µM | GI50 (SN12C renal) > 14.9 µM | GI50 (K-562 leukemia) 12.9 µM | GI50 (786-0 renal) > 16.4 µM | GI50 (SK-MEL-28 melanoma) > 12.8 µM | GI50 (A549 NSCLC) > 22.4 µM | GI50 (SNB-75 CNS) > 25 µM | GI50 (SR leukemia) 9.81 µM | GI50 (HS 578T breast) > 18.2 µM | GI50 (BT-549 breast) 9.49 µM | GI50 (SNB-19 CNS) > 25 µM | GI50 (A498 renal) > 23.1 µM | GI50 (KM12 colon) > 25 µM | GI50 (HOP-92 NSCLC) 24.5 µM | GI50 (IGROV1 ovarian) 10.5 µM | GI50 (UO-31 renal) 8.84 µM | GI50 (NCI-H23 lung) > 22.2 µM | GI50 (SK-MEL-5 melanoma) > 15.1 µM | GI50 (HCC-2998 colon) > 12.3 µM | GI50 (SK-MEL-2 melanoma) > 13.6 µM | GI50 (SW-620 colon) 9.69 µM | GI50 (T-47D breast) 7.56 µM | GI50 (HOP-62 NSCLC) > 25 µM | GI50 (OVCAR-4 ovarian) > 18.3 µM | GI50 (HCT-15 colon) 7.87 µM | GI50 (DU-145 prostate) 13.8 µM | GI50 (ACHN renal) 6.23 µM | GI50 (NCI-H522 lung) 3.29 µM | GI50 (HCT-116 colon) 7.41 µM | GI50 (M14 melanoma) 24.2 µM
23.5 µM: TGI (HL-60(TB) leukemia)
> 22.7 µM: TGI (SK-MEL-28 melanoma)
> 22.5 µM: TGI (OVCAR-3 ovarian)
> 14.3 µM: TGI (UO-31 renal)
> 20.6 µM: TGI (MCF7 breast)
> 18.2 µM: TGI (HCC-2998 colon)
10.2 µM: TGI (LOX IMVI melanoma)
> 19.1 µM: TGI (HCT-15 colon)
